Measured values: patent publication US8039438B2, “Synthetic peptides that cause F-actin bundling and block actin depolymerization” (The Regents of the University of California, priority 2003, dated 2011)

Tests used:
[1] = system: dextran-labeled electroporated cells; assay: Change in number of dextran-labeled cells after electroporation with peptide; type: cell-based; details: for % change in cell number: dextran-labeled cells counted before and after 18 hrs incubation
Protocol: Electroporated cells were treated with fluorescent dextran plus peptide so those cells receiving the peptide could be identified. Typically a very small number of cells successfully incorporate substance during electroporation, making it difficult to identify those receiving peptide. Typically one sees 10-20% incorporation. But, there is good evidence showing that if a cell incorporates one component in buffer, it will incorporate all components. Thus, dextran can be used to identify those cells receiving peptide. After electroporation of cells with fluorescent dextran and the active peptide SEQ ID NO: 12, the dextran-labeled cells were initially counted and then incubated for 18 hrs. After incubation overnight, the dextran-labeled cells were once again counted. The following Tables 4 and 5 show the average change in dextran-labeled cells after the cells are electroporated and the peptide has invaded the cell body. The cell numbers of the SS12 treated peptide seemed to fluctuate after incubation with various concentrations of the SS12 peptide.

MDA 231 cells = assay: Actin reorganization in MDA 231 cells electroporated with peptide, rhodamine-phalloidin stained; type: cell-based, human
Protocol: Referring now to FIG. 2, it can be shown that treatment with an active peptide results in actin organization in human mammary epithelial tumor cells. MDA 231 cells were electroporated with SS1 (panel A) or SS12 (panel B), fixed, and rhodamine-phalloidin stained. Control epithelial tumor cells were treated with SS1 (SEQ ID NO: 9) resulting in no effect on actin-filled lamellipodia (or ruffling) characteristic of crawling cells.
MDA 231 cells are a particularly aggressive tumor cell line crawling and moving from between tissues.

[2] = system: actin comet tails in Xenopus egg extracts; assay: Actin comet-tail formation in cytoplasmic extracts; type: biochemical, Xenopus laevis
Protocol: In FIGS. 4A and 4B, in vitro polymerized actin forms comet tail from rhodamine-labeled actin added to Xenopus laevis egg cytoplasmic extract. This was set up according to the protocol in Taunton et al., J Cell Biol. 2000 Feb. 7; 148(3):519-30.
Crude Xenopus egg extract was prepared as described except that cytochalasin D was omitted (Murray and Kirschner, Nature. 1989 May 25; 339(6222):275-80). Cytosol and a heavy membrane fraction were prepared by centrifugation of the crude extract (2 h, 300.000 g max; BECKMAN SW-50 rotor). The viscous glycogen pellet beneath the membrane layer was discarded. Cytosol was further clarified by spinning for 15 min at 541,000 g max (BECKMAN TLA 100.3 rotor). Crude membranes (diluted with one volume of 2 M sucrose) and cytosol were snap frozen in separate aliquots for storage at −80° C. unless otherwise indicated. Clarified cytosol contained a small population of vesicles, but motility assays were far more robust (more comet tails over a longer time period) when cytosol was supplemented with the heavy membrane fraction.
For the standard assay, crude membranes in 1 M sucrose (20-μl aliquot, derived from ˜80 μl crude extract) were washed and resuspended in 14 μl buffer A (50 mM NaCl, 5 mM MgCl2, and 50 mM tris [pH 7.5]). To the membrane suspension were added 35 μl cytosol (derived from ˜80 μl crude extract), 0.3 μl rhodamine-labeled actin (prepared according to Kellogg et al., Development. 1988 August; 103(4):675-86), 3 μl PMA (20 μM stock in 10% DMSO), and 20 μl buffer A at 4° C. 20-μl samples were then warmed to room temperature. After 30-40 min, 2-μl aliquots were viewed with a Nikon E800 microscope to yield the photomicrographs of FIG. 4. Images were acquired with a Princeton Instruments cooled CCD camera (standard rhodamine filter set, Princeton Instruments, Trenton, N.J.) and analyzed with WINVIEW (Visitron System, Puchheim, Germany) or METAMORPH software (Princeton Instruments, Trenton, N.J.). Pixels having an intensity over a threshold value (set to a value greater than the background fluorescence in regions devoid of comet tails) were summed over 10 random fields to quantitate relative actin assembly.
Cytosol was supplemented with a crude membrane fraction, rhodamine-actin, 1 μM PMA and peptide SS2 or SS12 (1 μM). After incubating at room temperature for 20 min, samples were viewed by fluorescence. Actin comet tails formed in Xenopus cytoplasmic extracts where no SS2 or SS12 peptides were added as shown by the photographs A, B and E of FIG. 4.

[3] = target: T1, purified rabbit muscle actin (Oryctolagus cuniculus, UniProt P68135); assay: Negative stain electron microscopy of actin polymerized in presence of peptide; type: biochemical; details: co-polymerization, molar ratio peptide:actin=2, negative stain electron microscopy
T1 construct: purified rabbit muscle actin in vitro were visualized by negative stain electron microscopy; from tissue; host or cells: rabbit muscle
Description: The actin bundles caused by co-polymerization of SS12 peptide with purified rabbit muscle actin in vitro were visualized by negative stain electron microscopy (FIG. 5). The bundles still show overall filamenteous structure about 3 times the width of actin filaments polymerized in vitro in the absence of SS12 peptide (FIG. 5A, B). The surface of the bundles is not smooth, but irregular, resembling attempts to branch or attachments of short actin bundles to the sides of the long ones (FIG. 5C). The peptide-bundled actin filaments are much shorter than the control filaments as visualized with rhodamine-phalloidin by fluorescence microscopy (data not shown).
Purified rabbit actin was polymerized in the presence or absence of the SS12 peptide and by absorption applied to a carbon coated copper grid. Negative contrastation was carried out with Pb-citrate and the dried grid was viewed in an Electron microscope at high magnifications (12,000× and 65,000×). […] Higher magnification identified a “modulated” decoration of the otherwise smooth filaments.

actin/pyrene-actin = actin/pyrene-actin (Oryctolagus cuniculus, UniProt P68135); assay: Actin/pyrene-actin polymerization fluorescence (nucleating or capping activity); type: biochemical; details: time-dependent fluorescence increase; data not shown
Description: Upon binding to ActA, the Arp2/3 complex has enhanced nucleating activity for actin polymerization (Skoble J, Portnoy D A, Welch M D, Three regions within ActA promote Arp2/3 complex-mediated actin nucleation and Listeria monocytogenes motility; J Cell Biol. […] Aug. 7; 150(3):527-38). We tested a possible involvement of the homologous sequence on nucleating or capping activity by following the time-dependent fluorescence increase upon actin/pyrene-actin polymerization in the presence of the synthetic peptide SS12.

[4] = system: dextran-labeled electroporated cells; assay: Change in number of dextran-labeled cells after electroporation with peptide; type: cell-based

GIVRKWISRFEVWPYL (SS12 active synthetic peptide)
increase in cell population after incubation ([1]; compared with SS1 control peptide-treated cells): did not exhibit the expected increase in cell population | % change in cell number [1]: −12.5% | % change in cell number ([1]; peptide concentration 0.2 μM): +13.21% | % change in cell number ([1]; peptide concentration 1.0 μM): −1.5% | % change in cell number ([1]; peptide concentration 10.0 μM): −8.6% | cell movement (MDA 231 cells; MDA 231 cells after peptide treatment): ceased movement | effect on actin-filled lamellipodia (MDA 231 cells; MDA 231 cells electroporated with peptide): no longer have lamellipodia | effect on actin comet tails ([2]; FIGS. 4C, 4D, 4F, concentration not given): complete disruption of the comet tails | actin comet tail formation ([2]; peptide 1 μM, 1 μM PMA, 20 min at room temperature): little or no actin comet tail formation | width of bundles relative to actin filaments polymerized in the absence of peptide [3]: about 3 times the width | nucleating or capping activity (actin/pyrene-actin): did not show any nucleating or capping activity | number of cells after 24 hours ([4]; compared to cells treated with the inactive peptide): decrease in the number of cells | time over which cell division was inhibited ([4]; observation period 36 hours, cells with 24 hr cell cycle): 36 h
